Measured values from PubChem BioAssay (NCI).
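Each compound was tested at five concentrations against cells in 96-well plates for 48 hours. At the TGI there is no net growth.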

Experiments:
Assay in all cases: NCI anticancer screen, dose series, 48 h
SNB-19 CNS = system: SNB-19 CNS
NCI/ADR-RES ovarian = system: NCI/ADR-RES ovarian
BT-549 breast = system: BT-549 breast
OVCAR-5 ovarian = system: OVCAR-5 ovarian
HS 578T breast = system: HS 578T breast
NCI-H23 lung = system: NCI-H23 lung
SN12C renal = system: SN12C renal
HCT-116 colon = system: HCT-116 colon
786-0 renal = system: 786-0 renal
HOP-92 NSCLC = system: HOP-92 NSCLC
MCF7 breast = system: MCF7 breast
T-47D breast = system: T-47D breast
SF-295 CNS = system: SF-295 CNS
UO-31 renal = system: UO-31 renal
EKVX NSCLC = system: EKVX NSCLC
SF-268 CNS = system: SF-268 CNS
HT29 colon = system: HT29 colon
OVCAR-4 ovarian = system: OVCAR-4 ovarian
M14 melanoma = system: M14 melanoma
RXF 393 renal = system: RXF 393 renal
MALME-3M melanoma = system: MALME-3M melanoma
A498 renal = system: A498 renal
A549 NSCLC = system: A549 NSCLC
SNB-75 CNS = system: SNB-75 CNS
OVCAR-8 ovarian = system: OVCAR-8 ovarian
MOLT-4 leukemia = system: MOLT-4 leukemia
SK-OV-3 ovarian = system: SK-OV-3 ovarian
NCI-H522 lung = system: NCI-H522 lung
MDA-MB-231 breast = system: MDA-MB-231 breast
TK-10 renal = system: TK-10 renal
LOX IMVI melanoma = system: LOX IMVI melanoma
UACC-62 melanoma = system: UACC-62 melanoma
MDA-N = system: MDA-N
UACC-257 melanoma = system: UACC-257 melanoma
U251 CNS = system: U251 CNS
HOP-62 NSCLC = system: HOP-62 NSCLC
SK-MEL-2 melanoma = system: SK-MEL-2 melanoma
IGROV1 ovarian = system: IGROV1 ovarian
OVCAR-3 ovarian = system: OVCAR-3 ovarian
HCC-2998 colon = system: HCC-2998 colon
HCT-15 colon = system: HCT-15 colon
KM12 colon = system: KM12 colon
DU-145 prostate = system: DU-145 prostate
HL-60(TB) leukemia = system: HL-60(TB) leukemia
SK-MEL-28 melanoma = system: SK-MEL-28 melanoma
SK-MEL-5 melanoma = system: SK-MEL-5 melanoma
MDA-MB-435 = system: MDA-MB-435
PC-3 prostate = system: PC-3 prostate
K-562 leukemia = system: K-562 leukemia
CAKI-1 renal = system: CAKI-1 renal
SW-620 colon = system: SW-620 colon
RPMI-8226 leukemia = system: RPMI-8226 leukemia
NCI-H226 lung = system: NCI-H226 lung
COLO 205 colon = system: COLO 205 colon
ACHN renal = system: ACHN renal
NCI-H460 lung = system: NCI-H460 lung
SF-539 CNS = system: SF-539 CNS
CCRF-CEM leukemia = system: CCRF-CEM leukemia

Measured: TGI

Cn1c(=O)c2c(nc3n2CC(C(=O)O)N3)n(C)c1=O (stereo unspecified)
0.242 µM: MOLT-4 leukemia
not listed: CCRF-CEM leukemia
> 100 µM: all other assays above

O=C(NCc1ccccc1)c1n[nH][nH]c1=O
not listed: HOP-92 NSCLC | A498 renal | LOX IMVI melanoma | SF-539 CNS
> 100 µM: all other assays above
